Data from patent US20230364180A1, “COMPOSITION FOR IMPROVING MILD COGNITIVE IMPAIRMENT AND METHOD FOR IMPROVING MILD COGNITIVE IMPAIRMENT” (TOKAI BUSSAN CO., LTD., priority 2019, published 2023).

What was measured:
[1] = Proteolytic action on target protein by hydroxyl radical (FIG. 2A); assay type: biochemical; conditions: prevention of degradation of target protein
Source text: FIG. 2A is a hydroxyl radical, in which 1 is untreated target protein, 2 is no antioxidant added, 3 is IMDP added, 4 is vitamin C added, 5 is ferulic acid added, 6 is IMDP+vitamin C+ferulic acid added; and […]

[2] = stated as known; cited from earlier work
[3] = Proteolytic action on target protein by peroxynitrite radical (FIG. 2B); assay type: biochemical; conditions: prevention of degradation of target protein
[4] = stated as known; cited from earlier work; remark: listed apart in the source

COc1cc(/C=C/C(=O)O)ccc1O [ferulic acid]
antioxidant activity against hydroxyl radicals [1]: strong

vitamin E
antioxidant activity against hydroxyl radicals (known) [2]: strong

O=C1O[C@H]([C@@H](O)CO)C(O)=C1O [vitamin C]
antioxidant activity against peroxynitrite radicals [3]: strong | antioxidant activity against peroxynitrite radicals (known) [4]: strong

CC1=C(/C=C/C(C)=C/C=C/C(C)=C/C=C/C=C(C)/C=C/C=C(C)/C=C/C2=C(C)C(=O)[C@@H](O)CC2(C)C)C(C)(C)C[C@H](O)C1=O [astaxanthin]
antioxidant activity against hydroxyl radicals (known) [2]: strong
